Experimental data reported in ChEMBL document CHEMBL3272344, “Synthesis of 5-substituted aminomethyluracils via the Mannich reaction” (J Med Chem, 1976).
Active and inactive are the calls of the source. No cut-off for these calls is given here.

Experiments:
Plasmodium berghei [1] = test: Antimalarial activity against Plasmodium berghei infected in mouse at 320 mg/kg; type: functional, organism-based; set-up: dose 320 mg/kg
Mus musculus [2] = test: Toxicity in Plasmodium berghei infected mouse at 320 mg/kg; type: organism-based; set-up: dose 320 mg/kg; conditions: in vivo
Plasmodium gallinaceum [3] = test: Antimalarial activity against Plasmodium gallinaceum B infected in chick at 100 mg/kg; type: functional, organism-based; set-up: dose 100 mg/kg
Gallus gallus [4] = test: Toxicity in Plasmodium gallinaceum B infected chick at 100 mg/kg; type: organism-based; set-up: dose 100 mg/kg; conditions: chicken, in vivo
Plasmodium berghei [5] = test: Antimalarial activity against Plasmodium berghei infected in mouse at 640 mg/kg; type: functional, organism-based; set-up: dose 640 mg/kg
Mus musculus [6] = test: Toxicity in Plasmodium berghei infected mouse at 640 mg/kg; type: organism-based; set-up: dose 640 mg/kg; conditions: in vivo
L1210 = test: Antitumor activity against mouse L1210 cells allografted in mouse up to 400 mg/kg; type: functional, organism-based; set-up: dose 400 mg/kg
Mus musculus [7] = test: Toxicity in mouse L1210 cells allografted mouse up to 400 mg/kg; type: organism-based; set-up: dose 400 mg/kg; conditions: in vivo
Plasmodium gallinaceum [8] = test: Antimalarial activity against Plasmodium gallinaceum B infected in chick at 120 mg/kg; type: functional, organism-based; set-up: dose 120 mg/kg
Gallus gallus [9] = test: Toxicity in Plasmodium gallinaceum B infected chick at 120 mg/kg; type: organism-based; set-up: dose 120 mg/kg; conditions: chicken, in vivo
Plasmodium gallinaceum [10] = test: Antimalarial activity against Plasmodium gallinaceum B infected in chick at 160 mg/kg; type: functional, organism-based; set-up: dose 160 mg/kg
Gallus gallus [11] = test: Toxicity in Plasmodium gallinaceum B infected chick at 160 mg/kg; type: organism-based; set-up: dose 160 mg/kg; conditions: chicken, in vivo

Row | SMILES | Activity (Plasmodium berghei [1]) | Activity (Mus musculus [2]) | Activity (Plasmodium berghei [5]) | Activity (Mus musculus [6]) | Activity (L1210) | Activity (Mus musculus [7]) | further results
1 | O=c1[nH]cc(CNc2ccc(Cl)cc2)c(=O)[nH]1 | inactive | Non-toxic | – | – | – | – | –
2 | CCCCNCc1c[nH]c(=O)[nH]c1=O | – | – | inactive | Non-toxic | – | – | Activity (Plasmodium gallinaceum [3]): inactive; Activity (Gallus gallus [4]): Non-toxic
3 | O=c1[nH]cc(CNc2ccccc2)c(=O)[nH]1 | – | – | inactive | Non-toxic | inactive | Non-toxic | Activity (Plasmodium gallinaceum [8]): inactive; Activity (Gallus gallus [9]): Non-toxic
4 | COc1ccc(NCc2c[nH]c(=O)[nH]c2=O)cc1 | inactive | Non-toxic | – | – | – | – | Activity (Plasmodium gallinaceum [10]): inactive; Activity (Gallus gallus [11]): Non-toxic
5 | O=c1[nH]cc(CNC2CCCCC2)c(=O)[nH]1 | inactive | Non-toxic | – | – | inactive | Non-toxic | Activity (Plasmodium gallinaceum [10]): inactive; Activity (Gallus gallus [11]): Non-toxic
6 | CN(C)Cc1c[nH]c(=O)[nH]c1=O | – | – | – | – | inactive | Non-toxic | –
7 | Cc1cccc(NCc2c[nH]c(=O)[nH]c2=O)c1 | – | – | inactive | Non-toxic | – | – | –
